Legend:
Test in all cases: Kinase inhibitory activity profiling of RI-962@10 µM (406 kinases, Eurofins)
Type in all cases: biochemical
[1] = biological target: panel of human kinases (kinase named in endpoint) (Homo sapiens, UniProt O00444); details: 10 µM; read-out: Activity (%), Plk4(h)
Method in brief: (§1)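 Radiometric filter-binding kinase assays: enzyme preincubated 15 min with compound in 8 mM MOPS pH 7.0, 0.2 mM EDTA, 250 μM peptide substrate, 10 mM magnesium acetate, 10 μM [γ-33P]-ATP. Reaction started with Mg/ATP, run 40 min at room temperature, stopped with phosphoric acid; 33P incorporation read by scintillation counting. Other kinases by similar protocols.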

[2] = biological target: panel of human kinases (kinase named in endpoint) (Homo sapiens, UniProt O75460); details: 10 µM; read-out: Activity (%), IRE1(h)
Method in brief: as §1

[3] = biological target: panel of human kinases (kinase named in endpoint) (Homo sapiens, UniProt O75716); details: 10 µM; read-out: Activity (%), STK16(h)
Method in brief: as §1

[4] = biological target: panel of human kinases (kinase named in endpoint) (Homo sapiens, UniProt P00533, L858R/T790M); details: 10 µM; read-out: Activity (%), EGFR(T790M,L858R)(h)
Method in brief: as §1

[5] = biological target: panel of human kinases (kinase named in endpoint) (Homo sapiens, UniProt P06493); details: 10 µM; read-out: Activity (%), CDK1/cyclinB(h)
Method in brief: as §1

[6] = biological target: panel of human kinases (kinase named in endpoint) (Homo sapiens, UniProt P15056, V600E); details: 10 µM; read-out: Activity (%), B-Raf(V599E)(h)
Method in brief: as §1

[7] = biological target: panel of human kinases (kinase named in endpoint) (Homo sapiens, UniProt P29317); details: 10 µM; read-out: Activity (%), EphA2(h)
Method in brief: as §1

[8] = biological target: panel of human kinases (kinase named in endpoint) (Homo sapiens, UniProt P29323); details: 10 µM; read-out: Activity (%), EphB2(h)
Method in brief: as §1

[9] = biological target: panel of human kinases (kinase named in endpoint) (Homo sapiens, UniProt P36888, D835Y); details: 10 µM; read-out: Activity (%), Flt3(D835Y)(h)
Method in brief: as §1

[10] = biological target: panel of human kinases (kinase named in endpoint) (Homo sapiens, UniProt P49674); details: 10 µM; read-out: Activity (%), CK1ε(h)
Method in brief: as §1

[11] = biological target: panel of human kinases (kinase named in endpoint) (Homo sapiens, UniProt P49761); details: 10 µM; read-out: Activity (%), CLK3(h)
Method in brief: as §1

[12] = biological target: panel of human kinases (kinase named in endpoint) (Homo sapiens, UniProt P53350); details: 10 µM; read-out: Activity (%), Plk1(h)
Method in brief: as §1

[13] = biological target: panel of human kinases (kinase named in endpoint) (Homo sapiens, UniProt P54756); details: 10 µM; read-out: Activity (%), EphA5(h)
Method in brief: as §1

[14] = biological target: panel of human kinases (kinase named in endpoint) (Homo sapiens, UniProt Q13177); details: 10 µM; read-out: Activity (%), PAK2(h)
Method in brief: as §1

[15] = biological target: panel of human kinases (kinase named in endpoint) (Homo sapiens, UniProt Q13188); details: 10 µM; read-out: Activity (%), MST2(h)
Method in brief: as §1

[16] = biological target: panel of human kinases (kinase named in endpoint) (Homo sapiens, UniProt Q14012); details: 10 µM; read-out: Activity (%), CaMKI(h)
Method in brief: as §1

[17] = biological target: panel of human kinases (kinase named in endpoint) (Homo sapiens, UniProt Q14680); details: 10 µM; read-out: Activity (%), MELK(h)
Method in brief: as §1

[18] = biological target: panel of human kinases (kinase named in endpoint) (Homo sapiens, UniProt Q16816); details: 10 µM; read-out: Activity (%), PhKγ1(h)
Method in brief: as §1

[19] = biological target: panel of human kinases (kinase named in endpoint) (Homo sapiens, UniProt Q6DT37); details: 10 µM; read-out: Activity (%), MRCKγ(h)
Method in brief: as §1

[20] = biological target: panel of human kinases (kinase named in endpoint) (Homo sapiens, UniProt Q8IU85); details: 10 µM; read-out: Activity (%), CaMKIδ(h)
Method in brief: as §1

[21] = biological target: panel of human kinases (kinase named in endpoint) (Homo sapiens, UniProt Q96RR4); details: 10 µM; read-out: Activity (%), CaMKK2(h)
Method in brief: as §1

[22] = biological target: panel of human kinases (kinase named in endpoint) (Homo sapiens, UniProt Q9P1W9); details: 10 µM; read-out: Activity (%), Pim-2(h)
Method in brief: as §1

[23] = biological target: panel of human kinases (kinase named in endpoint) (Homo sapiens, UniProt Q9P289); details: 10 µM; read-out: Activity (%), MST4(h)
Method in brief: as §1

[24] = biological target: panel of human kinases (kinase named in endpoint) (Homo sapiens, UniProt Q9UEE5); details: 10 µM; read-out: Activity (%), DRAK1(h)
Method in brief: as §1

[25] = biological target: panel of human kinases (kinase named in endpoint) (Homo sapiens, UniProt Q9UK32); details: 10 µM; read-out: Activity (%), Rsk4(h)
Method in brief: as §1

Sequence of panel of human kinases (kinase named in endpoint) (Homo sapiens, UniProt Q9UK32) (Q9UK32 whole entry): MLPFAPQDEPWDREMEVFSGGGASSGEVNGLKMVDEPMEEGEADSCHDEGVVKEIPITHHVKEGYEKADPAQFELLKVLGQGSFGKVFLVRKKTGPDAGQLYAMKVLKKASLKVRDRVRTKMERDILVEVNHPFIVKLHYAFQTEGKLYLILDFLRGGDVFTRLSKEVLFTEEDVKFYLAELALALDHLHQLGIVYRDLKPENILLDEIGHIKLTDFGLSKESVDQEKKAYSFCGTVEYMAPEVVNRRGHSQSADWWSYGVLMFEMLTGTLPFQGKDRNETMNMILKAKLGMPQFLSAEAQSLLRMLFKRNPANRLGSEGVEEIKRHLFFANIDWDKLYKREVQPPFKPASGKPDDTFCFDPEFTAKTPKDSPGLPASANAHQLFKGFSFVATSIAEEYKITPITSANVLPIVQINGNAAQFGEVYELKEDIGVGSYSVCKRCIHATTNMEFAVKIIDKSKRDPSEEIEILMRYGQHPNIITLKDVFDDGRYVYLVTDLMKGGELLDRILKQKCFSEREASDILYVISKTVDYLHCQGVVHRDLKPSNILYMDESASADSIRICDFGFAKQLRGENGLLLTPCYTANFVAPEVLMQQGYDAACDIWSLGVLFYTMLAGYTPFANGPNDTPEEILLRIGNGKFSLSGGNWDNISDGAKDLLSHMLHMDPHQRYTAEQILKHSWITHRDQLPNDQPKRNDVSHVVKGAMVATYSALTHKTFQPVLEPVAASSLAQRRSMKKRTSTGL
Sequence of panel of human kinases (kinase named in endpoint) (Homo sapiens, UniProt P53350) (P53350 whole entry): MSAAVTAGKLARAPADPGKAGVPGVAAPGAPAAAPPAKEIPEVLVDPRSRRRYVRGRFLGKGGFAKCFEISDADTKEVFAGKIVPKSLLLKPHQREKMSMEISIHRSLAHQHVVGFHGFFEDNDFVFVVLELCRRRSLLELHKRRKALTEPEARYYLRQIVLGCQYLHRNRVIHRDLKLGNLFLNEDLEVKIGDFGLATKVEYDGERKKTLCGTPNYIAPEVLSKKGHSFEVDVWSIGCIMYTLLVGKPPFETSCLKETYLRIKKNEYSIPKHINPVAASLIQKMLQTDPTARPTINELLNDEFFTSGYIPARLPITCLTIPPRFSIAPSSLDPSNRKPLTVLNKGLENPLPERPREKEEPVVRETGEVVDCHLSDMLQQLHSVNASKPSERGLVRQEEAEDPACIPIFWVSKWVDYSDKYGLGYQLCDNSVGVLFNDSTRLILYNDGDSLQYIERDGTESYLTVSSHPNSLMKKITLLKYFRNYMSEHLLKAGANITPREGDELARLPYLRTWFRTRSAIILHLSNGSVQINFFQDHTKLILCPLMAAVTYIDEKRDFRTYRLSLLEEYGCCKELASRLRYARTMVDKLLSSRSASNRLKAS
Sequence of panel of human kinases (kinase named in endpoint) (Homo sapiens, UniProt Q6DT37) (Q6DT37 whole entry): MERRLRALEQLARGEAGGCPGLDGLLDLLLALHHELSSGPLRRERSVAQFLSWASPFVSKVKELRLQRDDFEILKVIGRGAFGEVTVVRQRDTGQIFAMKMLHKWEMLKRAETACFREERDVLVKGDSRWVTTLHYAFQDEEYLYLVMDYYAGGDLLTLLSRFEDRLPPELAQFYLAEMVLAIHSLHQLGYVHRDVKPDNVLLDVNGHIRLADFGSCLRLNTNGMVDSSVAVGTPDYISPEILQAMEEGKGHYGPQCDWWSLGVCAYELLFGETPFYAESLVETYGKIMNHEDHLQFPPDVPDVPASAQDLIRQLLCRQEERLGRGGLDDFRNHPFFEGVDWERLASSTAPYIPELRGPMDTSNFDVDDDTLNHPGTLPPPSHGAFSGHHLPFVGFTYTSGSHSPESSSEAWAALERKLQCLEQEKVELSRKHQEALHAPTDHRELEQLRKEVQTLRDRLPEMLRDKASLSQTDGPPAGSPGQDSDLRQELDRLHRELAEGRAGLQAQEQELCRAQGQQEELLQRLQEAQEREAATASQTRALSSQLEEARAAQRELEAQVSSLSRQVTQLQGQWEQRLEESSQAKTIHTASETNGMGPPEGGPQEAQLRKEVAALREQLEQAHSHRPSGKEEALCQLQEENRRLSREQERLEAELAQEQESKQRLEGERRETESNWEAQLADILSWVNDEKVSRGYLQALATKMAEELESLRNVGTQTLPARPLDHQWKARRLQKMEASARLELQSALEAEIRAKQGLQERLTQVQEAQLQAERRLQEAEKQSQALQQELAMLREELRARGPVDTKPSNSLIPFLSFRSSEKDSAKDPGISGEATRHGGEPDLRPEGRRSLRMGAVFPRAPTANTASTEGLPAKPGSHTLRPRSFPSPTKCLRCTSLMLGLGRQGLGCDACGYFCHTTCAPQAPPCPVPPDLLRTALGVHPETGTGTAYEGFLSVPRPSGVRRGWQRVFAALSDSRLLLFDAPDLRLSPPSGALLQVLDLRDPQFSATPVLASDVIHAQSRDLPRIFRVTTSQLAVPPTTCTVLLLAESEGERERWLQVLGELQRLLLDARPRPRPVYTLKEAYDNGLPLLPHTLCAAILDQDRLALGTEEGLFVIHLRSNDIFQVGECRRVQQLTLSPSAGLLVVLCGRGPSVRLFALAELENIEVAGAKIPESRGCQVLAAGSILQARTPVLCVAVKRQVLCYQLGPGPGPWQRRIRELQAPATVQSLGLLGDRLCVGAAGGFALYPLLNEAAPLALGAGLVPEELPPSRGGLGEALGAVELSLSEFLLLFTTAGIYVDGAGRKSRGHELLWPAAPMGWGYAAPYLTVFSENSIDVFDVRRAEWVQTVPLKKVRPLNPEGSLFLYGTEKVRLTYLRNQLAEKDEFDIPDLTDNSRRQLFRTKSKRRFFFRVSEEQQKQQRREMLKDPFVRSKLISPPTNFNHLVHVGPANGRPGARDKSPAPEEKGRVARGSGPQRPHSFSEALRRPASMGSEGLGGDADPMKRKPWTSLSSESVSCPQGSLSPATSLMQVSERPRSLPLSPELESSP
Sequence of panel of human kinases (kinase named in endpoint) (Homo sapiens, UniProt Q8IU85) (Q8IU85 whole entry): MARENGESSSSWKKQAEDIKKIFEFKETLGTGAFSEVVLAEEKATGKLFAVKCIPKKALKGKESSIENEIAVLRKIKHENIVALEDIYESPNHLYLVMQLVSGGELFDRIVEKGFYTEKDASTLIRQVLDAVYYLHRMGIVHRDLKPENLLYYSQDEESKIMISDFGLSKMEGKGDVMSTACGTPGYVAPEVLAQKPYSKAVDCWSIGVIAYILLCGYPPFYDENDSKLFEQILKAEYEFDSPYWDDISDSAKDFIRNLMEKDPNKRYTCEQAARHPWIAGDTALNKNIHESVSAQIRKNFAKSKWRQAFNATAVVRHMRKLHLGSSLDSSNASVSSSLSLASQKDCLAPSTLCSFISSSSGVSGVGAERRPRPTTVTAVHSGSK
Sequence of panel of human kinases (kinase named in endpoint) (Homo sapiens, UniProt Q13188) (Q13188 whole entry): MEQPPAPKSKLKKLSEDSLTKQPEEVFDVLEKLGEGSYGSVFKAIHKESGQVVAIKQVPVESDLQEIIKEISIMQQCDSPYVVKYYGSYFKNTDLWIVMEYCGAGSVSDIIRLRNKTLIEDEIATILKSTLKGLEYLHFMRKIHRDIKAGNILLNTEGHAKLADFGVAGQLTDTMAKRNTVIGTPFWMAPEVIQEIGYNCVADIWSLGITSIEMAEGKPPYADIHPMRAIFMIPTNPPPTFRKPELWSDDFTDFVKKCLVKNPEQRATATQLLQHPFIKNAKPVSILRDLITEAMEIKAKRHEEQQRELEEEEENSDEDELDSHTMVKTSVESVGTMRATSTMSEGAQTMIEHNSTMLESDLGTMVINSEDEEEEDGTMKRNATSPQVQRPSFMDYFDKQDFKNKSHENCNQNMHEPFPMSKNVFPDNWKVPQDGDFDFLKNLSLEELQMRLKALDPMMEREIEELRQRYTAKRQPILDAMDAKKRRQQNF
Sequence of panel of human kinases (kinase named in endpoint) (Homo sapiens, UniProt O75716) (O75716 whole entry): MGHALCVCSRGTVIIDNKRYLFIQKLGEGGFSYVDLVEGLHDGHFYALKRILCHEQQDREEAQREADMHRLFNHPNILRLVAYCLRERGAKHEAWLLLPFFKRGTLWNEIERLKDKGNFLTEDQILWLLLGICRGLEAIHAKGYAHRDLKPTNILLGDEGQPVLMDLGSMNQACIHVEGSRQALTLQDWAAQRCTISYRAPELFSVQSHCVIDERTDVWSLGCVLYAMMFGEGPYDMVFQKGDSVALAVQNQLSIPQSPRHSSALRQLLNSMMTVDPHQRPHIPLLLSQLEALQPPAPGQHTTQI
Sequence of panel of human kinases (kinase named in endpoint) (Homo sapiens, UniProt Q13177) (Q13177 whole entry): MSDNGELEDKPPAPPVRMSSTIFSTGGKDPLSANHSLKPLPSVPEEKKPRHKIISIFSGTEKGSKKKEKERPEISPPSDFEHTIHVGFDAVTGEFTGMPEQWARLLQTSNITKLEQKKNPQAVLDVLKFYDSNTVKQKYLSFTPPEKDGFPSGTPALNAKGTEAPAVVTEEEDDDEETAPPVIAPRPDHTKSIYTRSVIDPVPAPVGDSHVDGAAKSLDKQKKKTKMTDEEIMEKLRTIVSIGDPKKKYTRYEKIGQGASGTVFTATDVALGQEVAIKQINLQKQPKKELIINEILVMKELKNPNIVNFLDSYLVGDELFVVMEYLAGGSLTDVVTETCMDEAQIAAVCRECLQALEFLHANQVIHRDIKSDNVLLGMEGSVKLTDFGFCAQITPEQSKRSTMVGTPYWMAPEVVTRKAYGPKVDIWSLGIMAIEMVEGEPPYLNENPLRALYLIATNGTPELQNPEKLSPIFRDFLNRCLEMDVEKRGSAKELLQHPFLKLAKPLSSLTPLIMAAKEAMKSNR
Sequence of panel of human kinases (kinase named in endpoint) (Homo sapiens, UniProt Q14012) (Q14012 whole entry): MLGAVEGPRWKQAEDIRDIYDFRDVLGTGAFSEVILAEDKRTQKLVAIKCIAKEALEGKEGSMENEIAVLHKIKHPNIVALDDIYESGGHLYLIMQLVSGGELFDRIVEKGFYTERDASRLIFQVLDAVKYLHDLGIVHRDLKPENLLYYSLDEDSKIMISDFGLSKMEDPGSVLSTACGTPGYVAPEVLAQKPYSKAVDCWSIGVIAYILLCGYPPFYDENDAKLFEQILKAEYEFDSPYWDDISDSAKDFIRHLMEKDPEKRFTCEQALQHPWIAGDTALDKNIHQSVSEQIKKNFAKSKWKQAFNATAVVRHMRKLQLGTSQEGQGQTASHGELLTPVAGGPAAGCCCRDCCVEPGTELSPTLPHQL

Structure (SMILES): CC(C)C(=O)Nc1nc2cc(-c3ccc4c(c3)c(C(=O)NC(C)c3ccccc3)cn4C)ccn2n1 (stereo not shown) [RI-962]
- activity at 10 µM [1]: 88%
- activity at 10 µM [2]: 115%
- activity at 10 µM [3]: 100%
- activity at 10 µM [4]: 85%
- activity at 10 µM [5]: 99%
- activity at 10 µM [6]: 107%
- activity at 10 µM [7]: 96%
- activity at 10 µM [8]: 73%
- activity at 10 µM [9]: 88%
- activity at 10 µM [10]: 83%
- activity at 10 µM [11]: 94%
- activity at 10 µM [12]: 122%
- activity at 10 µM [13]: 93%
- activity at 10 µM [14]: 84%
- activity at 10 µM [15]: 64%
- activity at 10 µM [16]: 92%
- activity at 10 µM [17]: 95%
- activity at 10 µM [18]: 98%
- activity at 10 µM [19]: 83%
- activity at 10 µM [20]: 104%
- activity at 10 µM [21]: 81%
- activity at 10 µM [22]: 97%
- activity at 10 µM [23]: 119%
- activity at 10 µM [24]: 100%
- activity at 10 µM [25]: 61%

— PMC9653409, “Generative deep learning enables the discovery of a potent and selective RIPK1 inhibitor” (Nature Communications, 2022)
